Tests used:
[1] = Single-stage extraction of 2% aqueous bioproduct solutions with extractant (Examples 1-9); type: physicochemical; conditions: for Raffinate Bioproduct conc. (%) / Extract Bioproduct conc. (%): 100 g of 2% aqueous solution mixed with 100 g extractant of 80% 1-butene + 20% DME; for Raffinate Bioproduct conc. (%): raffinate phase; for Extract Bioproduct conc. (%): pressure vessel, extract phase; for DC (bioproduct distribution coefficient): extract/raffinate, extractant 80% 1-butene + 20% DME, ambient temperature (Table 1); for Distribution coefficient, 100% DME: extractant 100% DME (Table 2)
Procedure: Extraction of various bioproducts with an extractant composed of 80% 1-butene and 20% dimethylether (DME) 100 grams (g) of aqueous solutions of various bioproducts were prepared. Bioproduct initial concentration was 2%. Each of these bioproduct aqueous solutions was extracted in a pressure vessel by mixing with 100 g of extractant composed of 80% 1-butene (the hydrocarbon) and 20% dimethylether (the oxygenated compound) at ambient temperature. The amount of formed extract and formed raffinate and the concentration (conc.) of the bioproduct in each were determined. Theses concentrations were used to calculate the bioproduct distribution coefficient (DC). Also determined was the concentration of DME in the raffinate. Table 2 compares the found distribution coefficients to those of extracting with an extractant composed of 100% DME.

[2] = Effect of DME/1-butene ratio in the extractant on n-butanol extraction (Example 10); type: physicochemical; conditions: after extracting 2% n-butanol solution, 1:1 w/w, room temperature
Procedure: Extractant to aqueous solution weight/weight ratio was 1 to 1. Distribution coefficients, extractant concentration in the raffinate and extraction yield (single stage extraction at the selected extractant/aqueous solution weight/weight ratio) were determined and are summarized in Table 3.

Structure (SMILES): CCCC(=O)OC [Methyl Butyrate]
- Raffinate Bioproduct conc. (%) ([1]; ambient temperature): 0.034%
- Extract Bioproduct conc. (%) ([1]; ambient temperature): 2.12%
- DC (bioproduct distribution coefficient) [1]: 61.1
- Distribution coefficient, 20% DME + 80% 1-Butene ([1]; extractant 20% DME + 80% 1-butene (Table 2)): 61.14
- Distribution coefficient, 100% DME [1]: 20.73

Structure (SMILES): O=C1CCCO1 [Gamma Butyrolactone]
- Raffinate Bioproduct conc. (%) ([1]; ambient temperature): 0.37%
- Extract Bioproduct conc. (%) ([1]; ambient temperature): 0.172%
- DC (bioproduct distribution coefficient) [1]: 4.63
- Distribution coefficient, 100% DME [1]: 3.14

Structure (SMILES): O=C(O)CCC(=O)O [Succinic Acid]
- Raffinate Bioproduct conc. (%) ([1]; ambient temperature): 1.66%
- Extract Bioproduct conc. (%) ([1]; ambient temperature): 0.22%
- DC (bioproduct distribution coefficient) [1]: 0.13
- Distribution coefficient, 100% DME [1]: 1.01

Structure (SMILES): CCC(=O)O [Propionic Acid]
- Raffinate Bioproduct conc. (%) ([1]; ambient temperature): 0.92%
- Extract Bioproduct conc. (%) ([1]; ambient temperature): 1.09%
- DC (bioproduct distribution coefficient) [1]: 1.18
- Distribution coefficient, 100% DME [1]: 2.27

Structure (SMILES): CCCC=O [Butanal]
- Raffinate Bioproduct conc. (%) ([1]; ambient temperature): 0.26%
- Extract Bioproduct conc. (%) ([1]; ambient temperature): 1.85%
- DC (bioproduct distribution coefficient) [1]: 7.16
- Distribution coefficient, 100% DME [1]: 5.11

Structure (SMILES): COC [DME, dimethylether, reference compound]
- Wt % Extractant in Raffinate [2]: 31.0%
- Raffinate DME conc. (%) ([1]; DME in raffinate after extracting each 2% bioproduct solution with 80% 1-butene + 20% DME, ambient temperature): 4.5%

Structure (SMILES): CCCC(C)=O [2-Pentanone]
- Raffinate Bioproduct conc. (%) ([1]; ambient temperature): 0.22%
- Extract Bioproduct conc. (%) ([1]; ambient temperature): 1.89%
- DC (bioproduct distribution coefficient) [1]: 8.45
- Distribution coefficient, 100% DME [1]: 5.82

Structure (SMILES): O=Cc1ccco1 [Furfural]
- Raffinate Bioproduct conc. (%) ([1]; ambient temperature): 0.46%
- Extract Bioproduct conc. (%) ([1]; ambient temperature): 0.162%
- DC (bioproduct distribution coefficient) [1]: 3.54
- Distribution coefficient, 100% DME [1]: 3.79

Structure (SMILES): O=C(O)CCCC(=O)O [Glutaric Acid]
- Raffinate Bioproduct conc. (%) ([1]; ambient temperature): 1.37%
- Extract Bioproduct conc. (%) ([1]; ambient temperature): 0.56%
- DC (bioproduct distribution coefficient) [1]: 0.43
- Distribution coefficient, 100% DME [1]: 1.88

Reference: patent publication US20180087023A1, “METHOD OF PRODUCING BIOPRODUCTS” (White Dog Labs, Inc., priority 2015, published 2018)
